Reference: publication PMC9848257, “Design and synthesis of novel rigid dibenzo[b,f]azepines through ring closure technique as promising anticancer candidates against leukaemia and acting as selective topoisomerase II inhibitors and DNA intercalators” (Journal of Enzyme Inhibition and Medicinal Chemistry, 2023)

Legend:
leukaemia SR cells = assay: Anti-proliferative effect against SR cell line (MTT assay); assay type: cell-based; details: Homo sapiens; leukaemia SR cells; unit as in head of Table 3; read-out: Cytotoxicity IC50, SR
Procedure: The anti-proliferative effect of the 5e counterpart against the SR cell line was estimated using the MTT assay protocol.
Depending on the previous results, the cytotoxic activity of the designed candidate 5e was then evaluated against leukaemia SR cells. Doxorubicin was also evaluated as a reference drug.

[1] = Cytotoxic effect against normal cell line; assay type: cell-based; details: human, normal cell line PSC-800-011; read-out: Cytotoxicity IC50, PSC-800-011
Procedure: Following, the cytotoxic effect of compound 5e against a normal cell line, PSC-800–011, was also assigned to evaluate the selectivity of the compound towards the cancer cell lines. […] However, the selectivity index (SI) of compound 5e was also calculated to confirm its selectivity. It was known that any sample that has an SI value higher than 3 will be considered to have high selectivity.

[2] = test system: Solid Ehrlich carcinoma (SEC); assay: In vivo anti-tumour activity in SEC-bearing mice; parameters: species or system Swiss albino mice; details: 6 mg/Kg B.W., IP
Procedure: (§1) The full methodology of tumour induction, treatments, and blood measurements was carried out according to the described details in the supporting information (SI 5). Moreover, the experimental protocol was approved by the Research Ethics Committee at Suez Canal University (Approval number REC139/2022, Chemistry Department, Faculty of Science, Suez Canal University). […]
SI 5.1. Animals and tumor cell line
Adult female Swiss albino mice purchased from Theodor Bilharzia Research Institute, Giza, Egypt, with an average body weight of (18-23) g was used. Mice were housed under constant conditions of 12 h light/dark cycle in a […], with free access to standard laboratory mice food and water.
All procedures related to care and maintenance of the animals were performed according to the international guiding principles for animal research and approved by Faculty of Science, Suez Canal University bioethics and animal ethics committee (Approval number REC-01-2022).
Solid Ehrlich carcinoma (SEC) were got from the National Cancer Institute (Cairo University, Egypt). The tumor cell line was proliferated in mice through serial intraperitoneal (I.P.) transplantation of a volume of 0.2 mL physiological saline contains 1 × 10^6 viable cells for 24 h. SEC cells were collected 7 days after I.P. implantation. The harvested cells were diluted with saline to obtain a concentration of 5 × 10^6 viable SEC cells/mL. A volume of 0.2 mL saline contains 1 × 10^6 SEC cells […]
(§2) that were I.P. implanted into each normal mouse. SEC cells (1 × 10^6 tumor cells/mouse) were implanted subcutaneously into the right thigh of the hind limb.
(§3) The experimental animals were randomly divided into four groups. Group 1 served as the normal saline control. Group 2 served as the SEC control (1 × 10^6 cells/mouse). Group 3 served as the compound-treated group (6 mg/kg B.Wt., I.P.). Group 4 received the standard anticancer drug of […]
(§4) survival were recorded daily until the 24th day in both treated and control groups. At the end of experiment, the blood of each group was collected under light anesthesia for estimation of hematological and biochemical assays. The anesthetized animals were then sacrificed for evaluation of the antitumor activity and histopathological examination.
SI 5.2. Antitumor potentiality
It includes tumor volume, weight, and tumor inhibition ration (TIR%). Time interval measurements of tumor volume using digital Vernier caliper (Tricle Brand, Shanghai, China). Measure tumor length and width using clipper and then calculate tumor volume using formulations V = (L x W x W)/2, where V is tumor volume, W is tumor width, L is tumor length. While TIR% was calculated according to the following equation: […]. […]

[3] = Liver enzymes (ALT, AST) in SEC-bearing mice; assay type: in vivo, Swiss albino mice; details: 6 mg/Kg B.W., IP
Procedure: as §1, §2, §3
as §4, with “examination. […]” for “examination.”
At the end of the experiment, animals from different groups were sacrificed, and blood samples were collected for determination of liver enzymes ALT, AST levels. Activities of aspartate aminotransferase (AST) and alanine aminotransferase (ALT) were evaluated using commercial kits (ELITech clinical systems, France). […]

## COc1cccc2c1C(=O)c1c(O)c3c(c(O)c1C2=O)C[C@@](O)(C(=O)CO)C[C@@H]3O[C@H]1C[C@H](N)[C@H](O)[C@H](C)O1 [Doxorubicin, reference compound]
Leukaemia SR cells
  IC50: 3.78 ± 0.14 µM
[1]
  IC50: 12.8 ± 0.79 µM
[2]; SEC control 226 mg
  Solid tumour mass: 82.3 mg
[2]; SEC control 80.6 mm^3
  Tumour volume: 27.5 mm^3
[3]; SEC control 65.9 U/L
  ALT: 34.8 U/L
[3]; SEC control 71 U/L
  AST: 35.6 U/L
